Experimental data reported in patent US4277479A, “Tetrazolylalkoxycarbostyril derivatives and pharmaceutical compositions containing them” (Otsuka Pharmaceutical Co., Ltd., priority 1978, dated 1981).

What was measured:
[1] = tested on: Deoxycorticosteroneacetate (DOCA)/saline hypertension rats (DHR); assay: Hypo-tensive effect, Deoxycorticosteroneacetate (DOCA)/saline hypertension rats (DHR), tail-cuff method; format: in vivo, rat; conditions: 30 mg/kg oral, mean ± standard deviation
Protocol: Hypo-tensive effect of the compounds was measured by determining the maximum blood pressure of the test animals according to a procedure of Tail-cuff method.
The following types of test animals were used:
(2) Deoxycorticosteroneacetate (DOCA)/saline hypertension rats (DHR)
Wistar strain male rats having 150-170 g of body weight were anesthetized with ether and the left-side kidney was enucleated. One(1) week after the operation, 10 mg/kg of DOCA was injected subcutaneously once a week and 1% NaCl aqueous solution was given as drinking water. Five(5) weeks after the operation, rats having the maximum blood pressure over 150 mmHg were selected and used as test animals after having been denied food overnight.
Each of compounds to be tested was administered orally and the blood pressure of the rats was measured before the administration and 1, 2, 4, 6 and 8 hours after the administration. The blood pressure was measured by using Recorder (Rectihoriz type 8S, San-ei Instrument) and Electrosthygmomanometer PE-300 (Macro Bio-systems, Houston, Tex.).

[2] = target: T1, cyclic AMP phosphodiesterase (Oryctolagus cuniculus, UniProt G1ST54); assay: Obstructive action against cyclic AMP phosphodiesterase; format: biochemical, rabbit; conditions: 0.4 μmol cyclic AMP, read-out: Phosphodiesterase obstruction rate; for inhibition: concentration of test compound solution 10^-7 mole; for inhibition at 0.01 µM: concentration of test compound solution 10^-8 mole; for inhibition at 0.001 µM: concentration of test compound solution 10^-9 mole; for inhibition at 1 µM: concentration of test compound solution 10^-6 mole
T1 construct: the supernatant was collected to use it as a crude enzyme solution; from tissue; host or cells: rabbit platelets (from platelet-rich plasma)
T1 sequence (G1ST54 1-1128): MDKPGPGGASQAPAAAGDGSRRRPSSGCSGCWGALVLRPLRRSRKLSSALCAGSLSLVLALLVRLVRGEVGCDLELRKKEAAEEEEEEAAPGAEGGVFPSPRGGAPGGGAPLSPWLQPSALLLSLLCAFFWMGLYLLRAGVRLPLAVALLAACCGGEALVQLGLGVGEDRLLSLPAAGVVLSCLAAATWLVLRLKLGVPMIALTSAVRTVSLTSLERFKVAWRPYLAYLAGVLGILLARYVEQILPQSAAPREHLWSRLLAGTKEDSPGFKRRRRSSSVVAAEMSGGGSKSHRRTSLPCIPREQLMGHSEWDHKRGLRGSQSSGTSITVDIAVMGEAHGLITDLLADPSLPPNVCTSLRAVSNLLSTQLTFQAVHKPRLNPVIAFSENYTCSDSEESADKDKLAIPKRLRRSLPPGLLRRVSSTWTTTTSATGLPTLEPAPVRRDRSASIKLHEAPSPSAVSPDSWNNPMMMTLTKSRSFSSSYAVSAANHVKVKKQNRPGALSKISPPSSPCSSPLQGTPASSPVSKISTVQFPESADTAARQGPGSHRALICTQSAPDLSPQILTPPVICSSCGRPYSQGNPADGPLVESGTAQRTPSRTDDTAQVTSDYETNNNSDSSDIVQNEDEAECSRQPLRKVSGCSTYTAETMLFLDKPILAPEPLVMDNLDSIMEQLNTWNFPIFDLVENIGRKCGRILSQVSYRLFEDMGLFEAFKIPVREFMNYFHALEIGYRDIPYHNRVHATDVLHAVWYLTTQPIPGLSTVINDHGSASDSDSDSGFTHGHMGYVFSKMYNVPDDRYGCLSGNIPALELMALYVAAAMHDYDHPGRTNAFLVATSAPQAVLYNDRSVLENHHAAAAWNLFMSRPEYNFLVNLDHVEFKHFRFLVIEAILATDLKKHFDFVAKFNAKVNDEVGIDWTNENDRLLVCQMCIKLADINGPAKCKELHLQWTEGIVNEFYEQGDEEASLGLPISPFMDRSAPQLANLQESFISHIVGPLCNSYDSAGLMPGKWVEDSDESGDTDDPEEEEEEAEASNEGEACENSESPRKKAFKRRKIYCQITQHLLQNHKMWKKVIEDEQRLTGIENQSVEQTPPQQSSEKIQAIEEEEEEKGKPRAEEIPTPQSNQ
Protocol: (Test of obstructive action against cyclic AMP phosphodiesterase)
The obstructive action against cyclic AMP phosphodiesterase was measured according to the activity measuring method described in "Biochimica et Biophysica Acta", Vol. 429, pp. 485-497 (1976) and "Biochemical Medicine", Vol. 10, pp. 301-311 (1974).
That is, for determining the obstructive activity against cyclic AMP phosphodiesterase, 10 ml of a solution obtained by adding 1 mmol of MgCl2 into 50 mmol of tris-hydrochloric acid buffer with pH 7.4 was added to the platelets obtained by further centrifuging the above-said rabbit PRP at 3,000 r.p.m. for 10 minutes, and the suspended platelets were ground by a Teflon potter type homogenizer. This was followed by two times of freezing and thawing treatment and 300-second fracturing with 200 watt supersonic waves. After additional 60-minute centrifugation with 100,000 g, the supernatant was collected to use it as a crude enzyme solution.
10 Milliliters of this crude buffer solution was added to a 1.5×20 cm DEAE-cellulose column which has previously been buffered with 50 mmol of tris-acetate buffer (pH 6.0), followed by washing and elution with 30 ml of 50 mmol tris-acetate buffer, and this buffer solution was subjected to linear gradient elution with 0 to 1 moles of sodium acetate-tris-acetate buffer. The flow rate was 0.5 ml/min, and 5 ml of each fraction was batched out. […] This fraction was used as cyclic AMP phosphodiesterase.
0.1 Milliliter of an aqueous solution of each test compound of a specified concentration was mixed with 40 mmol of tris-hydrochloric acid buffer (pH 8.0, containing 50 μg of cow serum albumin and 4 mmol of MgCl2) containing predetermined 0.4 μmol of cyclic AMP (tritium cyclic AMP), and 0.2 ml of this mixed solution was used as a substrate solution.
0.2 Milliliter of the above-prepared cyclic AMP phosphodiesterase of a predetermined concentration was added to said substrate solution and the mixture was reacted at 30° C. for 20 minutes, producing tritium 5'-AMP from the tritium cyclic AMP.
The reaction system was then immersed in boiling water for 2 minutes to stop the reaction, and then this reaction solution was cooled in ice water and, for converting the produced tritium 5'-AMP into tritium adenosine, the solution was added with 0.05 ml (1 mg/ml) of snake poison as 5'-nucleotidase and reacted at 30° C. for 10 minutes. The whole amount of this reaction solutions was then added to a cation exchange resin (AG 500 W×4, 200-400 meshes, manufactured by Bio-Rad Co., column size: 0.5×1.5 cm), and the produced tritium anodesine alone was allowed to combine, washed with 6 ml of distilled water and eluted with 1.5 ml of 3 N-ammonia water. The whole quantity of the elutant was added with 10 ml of a triton-toluene type scintillator and the produced tritium adenosine was measured by a liquid scintillation counter to determine the phosphodiesterase activity.
In this way, the phosphodiesterase activation value (Vs) of the test compounds of the respective concentrations was determined, and the phosphodiesterase obstruction rate (%) was determined from said activation value (Vs) and control value (Vc) (obtained from water not containing any test compound) from the following formula: [formula]

SMILES | Maximum blood pressure, difference after the administration ([1]; 1 hour) [mmHg] | Maximum blood pressure, difference after the administration ([1]; 2 hours) [mmHg] | Maximum blood pressure, difference after the administration ([1]; 4 hours) [mmHg] | Maximum blood pressure, difference after the administration ([1]; 6 hours) [mmHg] | Maximum blood pressure, difference after the administration ([1]; 8 hours) [mmHg] | inhibition [2] [%] | inhibition at 0.01 µM [2] [%] | inhibition at 0.001 µM [2] [%] | inhibition at 1 µM [2] [%]
O=c1ccc2cc(OCCCCc3nnnn3C3CCCCC3)ccc2[nH]1 [Compound 7, 6-[4-(1-Cyclohexyltetrazol-5-yl)butoxy]carbostyril] | -8.4 ± 10.3 | -11.5 ± 8.5 | -14.8 ± 7.7 | -20.2 ± 14.0 | -21.3 ± 19.1 | 98.4 | 68.3 | 50.6 | 
O=c1ccc2cc(OCCCc3nnnn3CC3CCCCC3)ccc2[nH]1 [Compound 5, 6-[3-(1-Cyclohexylmethyltetrazol-5-yl)propoxy]carbostyril] | -10.7 ± 10.6 | -15.2 ± 11.2 | -12.5 ± 15.3 | -18.1 ± 9.6 |  | 73.4 | 55.2 | 38.6 | 89.9
O=c1ccc2cc(OCCCc3nnnn3C3CCCCC3)ccc2[nH]1 [Compound 1, 6-[3-(1-Cyclohexyltetrazol-5-yl)propoxy]carbostyril] | -10.1 ± 3.7 | -10.0 ± 3.7 | -17.4 ± 5.2 | -25.4 ± 10.5 | -34.6 ± 13.5 | 83.8 | 58.4 | 44.7 | 92.9
O=c1ccc2cc(OCCCc3nnnn3C3CCCCCCC3)ccc2[nH]1 [Compound 6, 6-[3-(1-Cyclooctyltetrazol-5-yl)propoxy]carbostyril] | -9.2 ± 4.8 | -12.0 ± 5.6 | -18.5 ± 6.1 | -30.3 ± 10.8 | -26.8 ± 10.6 | 79.6 | 57.4 | 36.5 | 88.4
